Experimental data from patent US8101410B2 (Entelechon GmbH, priority 2005, dated 2012).
Like-named read-outs stand apart in the source and are kept apart here.

Tests used:
[1] = test system: Nicotiana tabacum cv. Petit Havana SR1 shoots
Protocol: In one set of experiments uniformly looking ˜1 cm long shoots were taken while in a second set of experiments a bunch of 6-8 shoots were used.
For this purpose, shoots of Nicotiana tabacum cv. Petit Havana SR1 were obtained by multiplying the shoots regenerated from the leaf segments on MS medium supplemented with 2 mg/l BAP.

[2] = test system: shoots of codAps transgenic lines A, B, D and E of Brassica juncea cv. Varuna
Description: The codA gene was isolated in the inventors' laboratory from local strain of Arthrobacter globiformis (GenBank accession number AY589052, hereafter referred as codAps gene) and cloned into pPZP200lox(npt 11) vector (obtained from Dr. Deepak Pental, Department of Genetics, South Campus, University of Delhi, New Delhi, India). The resultant vector named as pSG was electroporated into Agrobacterium tumefaciens strain GV3101. Hypocotyl and cotyledonary petiolar explants were excised from 6 d old sterile seedlings were transformed using Agrobacterium tumefaciens strain GV3101/pSG/codAps.

[3] = test system: Brassica juncea cv. Varuna wild type seeds/seedlings
Protocol: (§1) T2 seeds of various independent homozygous transgenic lines of Brassica juncea cv. […] Homozygous transgenic genotypes were identified based on 100 percent germination of T2 seed of various independent transformed lines in the presence of 50 mg/l kanamycin.

[4] = test system: homozygous codAps transgenic lines A, B, D and E of Brassica juncea cv. Varuna seeds/seedlings; settings: for seedling growth: transgenic lines
Protocol: as §1
For these studies seeds from four homozygous transgenic lines (lines A, B, D and E) of T2 generation were used. The homozygous genotypes were identified based on 100 percent germination of seed in the presence of 50 mg/l kanamycin (i.e. otherwise lethal to wild type/non-transgenic lines).

[5] = test system: Brassica juncea cv. Varuna explants (wild type)
[6] = test system: Brassica juncea wild type shoots
Nicotiana tabacum L. [7] = settings: Present Investigations
Brassica juncea L. = settings: Present Investigations
plant cells [8] = settings: Table 2, choline, present investigations
[9] = test system: wild type/non-transgenic lines of Brassica juncea cv. Varuna; assay: Seed germination in the presence of kanamycin; format: in vivo
plant cells [10] = settings: Table 2, range over plant species, literature; cited from earlier work
Solanum tuberosum L. = settings: Haldrup et al. (1998); cited from earlier work
[11] = test system: Lycopersicon esculentum L.; settings: Haldrup et al. (1998); cited from earlier work
Nicotiana tabacum L. [12] = settings: Haldrup et al. (1998); cited from earlier work
[13] = 60 mM choline, transgenic lines
[14] = lower concentrations of choline, shoot induction medium

SMILES: C[N+](C)(C)CCO.[Cl-] [Choline, choline chloride]
- time to loss of green pigmentation followed by senescence/death after inoculation ([1]; 40 mM choline): ≤ 7 days
- shoot growth ([1]; MS medium with choline chloride 20 and 40 mM): significantly curtailed shoot growth
- growth of the shoots ([2]; 40 mM choline, transgenic lines): no significant alteration in the growth
- green pigmentation [2, 13]: no loss in green pigmentation
- growth of shoots [2, 13]: suppression in the growth
- choline concentration that shoots were able to withstand ([2]; transgenic lines A, B, D, E, MS medium): ≤ 60 mM
- fresh weight of seedlings, lower than those raised in absence of choline ([3]; 40 mM choline, MGM, 30 d): 90%
- seed germination and early seedling growth ([3]; MGM (half strength MS without sucrose/organics) with choline): significantly curtailed
- percent seed germination as well as seedling growth ([3]; MS medium supplemented with choline (20, 40 mM)): suppressed significantly
- seed germination ([3]; MS medium, 40 mM choline): almost no/little seed germination
- fresh weight of seedlings, lower than respective controls ([4]; four independent transgenic lines, 40 mM choline, MGM, 30 d): 25-30%
- seed germination and seedling growth ([4]; transgenic lines A, B, D, E, MGM, 40 mM choline vs 20 mM): delay in seed germination as well as reduction in seedling growth
- seed germination ([4]; transgenic lines A, B, D, E, MS medium, all concentrations of choline tested (20, 40 mM)): 100%
- seedling growth ([4]; MS medium, 20 mM choline and below): comparable to those grown in the absence of choline
- seedling growth ([4]; MS medium, 40 mM choline): significant reduction in seedling growth
- cotyledonary explants that lost green pigmentation completely ([5]; 40 mM choline): ~100%
- cultures exhibiting callogenesis ([5]; 40 mM choline): 100%
- shoot induction (caulogenesis) from hypocotyl and cotyledonary petiolar explants ([5]; choline chloride 10, 20, 30, 40 mM in shoot induction medium (MS + BAP, NAA, AgNO3), 20 d): suppressed shoot induction
- expansion of the cotyledonary leaves of cotyledonary petiolar explants ([5]; choline in shoot induction medium, effect increases with concentration): significantly curtailed the expansion of the cotyledonary leaves
- callogenesis i.e. callus induction [5, 14]: did not cause any significant alteration in callogenesis
- rhizogenesis [5, 14]: promoted rhizogenesis
- growth of shoots ([6]; MS medium with choline chloride 5-60 mM, wild type): significantly curtailed the growth of shoots
- time to death of shoots after inoculation ([6]; choline 20 mM and above, wild type shoots): ≤ 15 days
- choline concentration giving loss in green pigmentation followed by browning/senescence leading to death ([6]; wild type shoots, MS medium): ≥ 20 mM
- Selection concentration (Nicotiana tabacum L. [7]): 5584 mg/L
- Selection concentration (Brassica juncea L.): 5584 mg/L
- Selection concentration (plant cells [8]): 5584 mg/L

SMILES: NC[C@H]1O[C@H](O[C@H]2[C@H](O)[C@@H](O[C@H]3O[C@H](CO)[C@@H](O)[C@H](N)[C@H]3O)[C@H](N)C[C@@H]2N)[C@H](O)[C@@H](O)[C@@H]1O [Kanamycin]
- kanamycin concentration lethal to wild type/non-transgenic lines [9]: 50 mg/L

SMILES: CP(=O)(O)CC[C@H](N)C(=O)O [Phosphinothricin]
- Selection concentration (plant cells [10]): 5 to 10 mg/L

SMILES: O=C[C@H](O)[C@@H](O)[C@H](O)CO [Xylose]
- Selection concentration (Solanum tuberosum L.): 3750 mg/L
- Selection concentration [11]: 15000 mg/L
- Selection concentration (Nicotiana tabacum L. [12]): 20000 mg/L
- Selection concentration (plant cells [10]): 3750 to 20000 mg/L

SMILES: [Cl-].[K+] [potassium chloride, reference compound]
- shoot induction ([5]; potassium chloride 10, 20, 30, 40 mM in place of choline chloride): no significant alteration
- expansion of cotyledons and/or green pigmentation ([5]; potassium chloride at highest concentration (40 mM)): did not cause any suppression in the expansion of cotyledons and/or alteration in green pigmentation
